# How the values were obtained:
# RBCs [1] = assay: Hemolysis of RBCs during lipid exchange (UV-Vis absorbance at 541 nm); assay type: cell-based; conditions: for hemolysis of RBCs during lipid exchange: exogenous lipid loaded into MαCD, one hour incubation
# Protocol: The release of hemoglobin from the RBCs is considered as a sign of disrupting the cell membrane and consequently extracting the inner leaflet.
# The hemolysis of RBCs during lipid exchange was measured using UV-Vis spectroscopy.
# Presence of hemoglobin in the exchange solution is believed to be a disruption of the RBCs, lead to extracting the inner leaflet of the membrane. To monitor the amount of hemolysis after the exchange, the cells were centrifuged at 750×g for 5 minutes, 200 μL of the supernatant was collected, and its absorbance at 541 nm was measured using a plate reader. RBCs suspended in DPBS and water for 1 hour, at the same hematocrit concentrations as the ones used for exchange experiments, were used as negative and positive controls for the hemolysis. Both controls were also centrifuged at 750×g for 5 minutes.
# RBCs [2] = assay: Confocal microscopy of RBCs after exchange with a fluorescent lipid; assay type: cell-based; conditions: 19:1 POPS:NBD-PE, one hour incubation, with or without MαCD
# Protocol: To confirm that MαCD mediates the lipid exchange and that the lipids are exchanged with the outer leaflet only, confocal microscopy was performed on the RBCs after the exchange. A mixture of POPS and 1,2-dipalmitoyl-sn-glycero-3-phosphoethanolamine-N-(7-nitro-2-1,3-benzoxadiazol-4-yl) (NBD-PE) with a molar ratio 19:1 POPS:NBD-PE was used. RBCs are incubated for one hour with the lipid mixture without MαCD (FIG. 2A) or with the lipid mixture loaded into MαCD (FIG. 2B).
# Delivering of the phospholipids to the membrane was studied using fluorescence. A quenching agent was used to diminish the fluorescence to examine whether the lipids were delivered to the outer or inner leaflet. Organic solutions of a fluorescent phospholipid (NBD-PE) and POPS were mixed to a molar ratio of 1:19 NBD-PE:POPS. The other steps prior to the exchange experiment were as mentioned before. After the exchange, the cells were centrifuged at 750×g for 5 minutes, the precipitated RBCs were collected, re-suspended in 10% sucrose in DPBS, loaded onto a glass slide, and imaged using a confocal microscope. Sodium dithionite solution was made to a concentration of 50 mM and was added to an aliquot of the exchanged RBCs 1 minute prior to loading onto glass slides and imaging.
Molecule,hemolysis of RBCs during lipid exchange (RBCs [1]),capability of mediating the exchange process (RBCs [1]; two MαCD concentrations tested during optimisation),mediation of lipid exchange with RBC outer leaflet (RBCs [2])
"CCCCCCCC/C=C\CCCCCCCC(=O)OC(COC(=O)CCCCCCCCCCCCCCC)COP(=O)([O-])OCC[N+](C)(C)C (stereo not shown) [POPC, 1-palmitoyl-2-oleoyl-glycero-3-phosphocholine]",lowest hemolysis,,
"CCCCCCCC/C=C\CCCCCCCC(=O)O[C@H](COC(=O)CCCCCCCCCCCCCCC)COP(=O)(O)OC[C@H](N)C(=O)O [POPS, 1-palmitoyl-2-oleoyl-sn-glycero-3-phospho-L-serine]",lowest hemolysis,,
methyl-α-cyclodextrin [MαCD],,both concentrations were capable of mediating the exchange process,lipid exchange only occurs in the presence of MαCD
